Columns and labels:
[1] = Selectivity index, ratio of IC50 for BALB/c macrophages to IC50 for Leishmania amazonensis (MHOM/BR/76/LTB-012)
[2] = tested on: Leishmania amazonensis; test: Antileishmanial activity against Leishmania amazonensis MHOM/BR/76/LTB-012 axenic amastigotes by MTT assay
[3] = tested on: Leishmania amazonensis; test: Antileishmanial activity against Leishmania amazonensis LMA CL1 amastigotes infected in mouse macrophage by MTT assay; assay type: functional, organism-based
[4] = Toxicity against BALB/c mouse macrophage by MTT assay; assay type: cell-based; conditions: mouse macrophages
[5] = tested on: Leishmania braziliensis; test: Antileishmanial activity against Leishmania braziliensis MHOM/PE/PER006 promastigotes infected in mouse macrophage by MTT assay; assay type: functional, organism-based
[6] = tested on: Leishmania amazonensis; test: Antileishmanial activity against Leishmania amazonensis LV79 MPRO/BR/72/M1841 infected in BALB/c mouse assessed as lesion diameter at 5 mg/kg after 4 weeks; assay type: functional
[7] = tested on: Leishmania amazonensis; test: Antileishmanial activity against Leishmania amazonensis LV79 MPRO/BR/72/M1841 infected in BALB/c mouse assessed as reduction in parasite burden at 5 mg/kg after 6 weeks; assay type: functional; design: scale not given: the % may be the effect or the level left
[8] = tested on: Leishmania amazonensis; test: Antileishmanial activity against Leishmania amazonensis LV79 MPRO/BR/72/M1841 infected in BALB/c mouse assessed as reduction in parasite burden at 5 mg/kg after 4 weeks; assay type: functional; design: scale not given: the % may be the effect or the level left
[9] = tested on: Leishmania peruviana; test: Antileishmanial activity against Leishmania peruviana MHOM/PE/LCA08 promastigotes infected in mouse macrophage by MTT assay; assay type: functional, organism-based
[10] = tested on: Leishmania amazonensis; test: Antileishmanial activity against Leishmania amazonensis LV79 MPRO/BR/72/M1841 infected in BALB/c mouse assessed as reduction in parasite burden at 33 mg/kg after 7 weeks; assay type: functional, organism-based; design: dose 33 mg/kg; scale not given: the % may be the effect or the level left
[11] = tested on: Leishmania amazonensis; test: Antileishmanial activity against Leishmania amazonensis LV79 MPRO/BR/72/M1841 infected in BALB/c mouse assessed as lesion diameter at 33 mg/kg after 4 weeks; assay type: functional, organism-based; design: dose 33 mg/kg
[12] = tested on: Leishmania amazonensis; test: Antileishmanial activity against Leishmania amazonensis LV79 MPRO/BR/72/M1841 infected in BALB/c mouse assessed as reduction in parasite burden at 33 mg/kg after 4 weeks; assay type: functional, organism-based; design: dose 33 mg/kg; scale not given: the % may be the effect or the level left

Compound	Ratio IC50 [1]	IC50 [2] [µM]	IC50 [4] [µM]	other results
COc1ccc(/C=C/C(=O)c2c(O)cc(O)cc2OC)c(OC)c1	>50	6.4	> 300	IC50 [3]: 28.5 µM
COc1cccc(/C=C/C(=O)c2c(O)cc(O)cc2OC)c1	1.5	12	17.6	
C=CCOc1cc(OC)c(C(=O)/C=C/c2ccccc2Br)c(OCC=C)c1	0.7	7.9	5.4	
C=CCOc1cc(/C=C/C(=O)c2c(O)cc(O)cc2OC)cc(OCC=C)c1Br	10.5	1.1	11.5	IC50 [5]: 14.4 µM; Activity [6]: 3.1 mm; IC50 [3]: 4.1 µM; Activity [7]: 8%; Activity [8]: 9%
C=CCOc1cc(OC)c(C(=O)/C=C/c2ccncc2)c(OCC=C)c1		0.6		
C=CCOc1cc(OC)c(C(=O)/C=C/c2ccc(OC)cc2)c(OCC=C)c1	3.4	5.5	18.7	
C[C@@H]1[C@H](O)[C@@H](C)/C=C/C=C/C=C/C=C/C=C/C=C/C=C/[C@H](O[C@@H]2O[C@H](C)[C@@H](O)[C@H](N)[C@@H]2O)C[C@@H]2O[C@](O)(C[C@@H](O)C[C@@H](O)[C@H](O)CC[C@@H](O)C[C@@H](O)CC(=O)O[C@H]1C)C[C@H](O)[C@H]2C(=O)O [AMPHOTERICIN B]	76	0.1	5.3	IC50 [9]: 0.1 µM; IC50 [5]: 0.1 µM; IC50 [3]: 0.4 µM
COc1cc(O)cc(O)c1C(=O)/C=C/c1ccc(C(F)(F)F)cc1	2	8.6	17.1	
C=CCOc1cc(OC)c(C(=O)/C=C/c2ccc(O)cc2)c(OCC=C)c1		85.2		
COc1cc(O)cc(O)c1C(=O)/C=C/c1ccc(C)cc1	2.2	7.4	16.5	
COc1cc(O)cc(O)c1C(=O)/C=C/c1ccccc1F	1.4	11.8	16	
COc1cc(O)cc(O)c1C(=O)/C=C/c1ccc2c(c1)OCO2	38.3	4.1	157	IC50 [9]: 19.7 µM; IC50 [5]: 8.6 µM; IC50 [3]: 16.6 µM
COc1ccc(/C=C/C(=O)c2c(O)cc(OC)cc2OC)cc1 [FLAVOKAWAIN A]		17.2		
C=CCOc1cc(OC)c(C(=O)/C=C/c2cccc(OC)c2)c(OCC=C)c1	1.5	8.7	13.1	
C=CCOc1cc(OC)c(C(=O)/C=C/c2ccc(F)cc2)c(OCC=C)c1	1.5	9.5	13.8	
COc1cc(O)cc(O)c1C(=O)/C=C/C=C/c1ccccc1		52.6		
C=CCOc1cc(OC)c(C(=O)/C=C/c2ccc(C)cc2)c(OCC=C)c1		79.8		
C=CCOc1cc(OC)c(C(=O)/C=C/c2ccc3c(c2)OCO3)c(OCC=C)c1		6.6		

Compound	Ratio IC50 [1]	IC50 [2] [µM]	IC50 [4] [µM]	other results
MEGLUMINE ANTIMONATE				Activity [10]: 100%; Activity [11]: 2.1 mm; Activity [12]: 100%
C=CCOc1cc(OC)c(C(=O)/C=C/C=C/c2ccccc2)c(OCC=C)c1		75.2		
COc1cc(/C=C/C(=O)c2c(O)cc(O)cc2OC)cc(OC)c1OC		9.7		
C=CCOc1cc(OC)c(C(=O)/C=C/c2cc(OC)c(OC)c(OC)c2)c(OCC=C)c1	1.5	8.2	12	
C=CCOc1cc(OC)c(C(=O)/C=C/c2ccc(Cl)cc2)c(OCC=C)c1	1.4	9.4	13	
C=CCOc1cc(OC)c(C(=O)/C=C/c2ccc[nH]2)c(OCC=C)c1		94.3		
COc1cc(O)cc(O)c1C(=O)/C=C/c1ccc(Cl)cc1	1.7	11.2	19	
C=CCOc1cc(OC)c(C(=O)/C=C/c2ccc([N+](=O)[O-])cc2)c(OCC=C)c1	1.6	8.3	13.2	
COc1cc(O)cc(O)c1C(=O)/C=C/c1ccc(O)cc1 [HELICHRYSETIN]	1.4	15.7	21.7	
COc1cc(/C=C/C(=O)c2c(O)cc(O)cc2OC)ccc1O		14.9		
C=CCOc1cc(OC)c(C(=O)/C=C/c2ccc(O)c(OC)c2)c(OCC=C)c1		107		
C=CCOc1cc(OC)c(C(=O)/C=C/c2ccccc2F)c(OCC=C)c1	1.4	9.5	13.3	
COc1cc(O)cc(O)c1C(=O)/C=C/c1ccc(F)cc1	2.4	11.8	28.8	
C=CCOc1cc(OC)c(C(=O)/C=C/c2ccccn2)c(OCC=C)c1	11.4	1.1	12.5	IC50 [9]: 4 µM; IC50 [5]: 1.4 µM; Activity [6]: 3 mm; IC50 [3]: 0.9 µM; Activity [7]: 25%
COc1cc(O)cc(O)c1C(=O)/C=C/c1ccccc1Br	1.4	10.6	14.6	
COc1cc(O)cc(O)c1C(=O)/C=C/c1ccco1	83.5	4.6	384	IC50 [9]: 34.2 µM; IC50 [5]: 30.4 µM; IC50 [3]: 16.9 µM
COc1ccc(/C=C/C(=O)c2c(O)cc(O)cc2OC)cc1	16.6	10	166	IC50 [9]: 23 µM; IC50 [5]: 7.6 µM; IC50 [3]: 14.3 µM

From ChEMBL document CHEMBL1153187 (Bioorg Med Chem Lett, 2010)
